According to patent publication US20230017045A1, “PYRIDINE AND PYRIMIDINE CARBOXYLATE HERBICIDES AND METHODS OF USE THEREOF” (Dow AgroSciences LLC, priority 2017, published 2023):

These compounds were tested on test plant species (assay: Post-emergent herbicidal activity test (greenhouse, foliar spray, visual growth reduction)). Conditions: post-emergence, 336 h, ECHCG: barnyardgrass (Echinochloa crus-galli), 140 g ai/ha, 14 days after application, read-out: Visual Growth Reduction (%) 14 Days After Application, ECHCG.
Type: in vivo
Summary of the method: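 Seedlings were raised 7-21 d in a greenhouse under a 15 h photoperiod until the first or second true leaf. Each compound, dissolved in acetone:DMSO 97:3 and diluted into a surfactant-containing spray mixture, was then applied at 187 L/ha. Plants were subirrigated, and growth reduction was scored visually at 14 d.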

SMILES	pest or weed control at 140 g/ha
COC(=O)c1nc(-c2ccccc2)c(F)cc1Cl [F219, Methyl 3-chloro-5-fluoro-6-phenylpicolinate]	0 to 29%
COC(=O)c1nc(-c2ccc(OC(F)F)cc2Cl)c(F)cc1Cl [F200, Methyl 3-chloro-6-(2-chloro-4-(difluoromethoxy)phenyl)-5-fluoropicolinate]	75 to 84%
COC(=O)c1nc(-c2ccc3c(c2)C(F)(F)OC(F)(F)O3)c(Cl)cc1Cl [F202, Methyl 3,5-dichloro-6-(2,2,4,4-tetrafluoro-4H-benzo[d][1,3]dioxin-6-yl)picolinate]	0 to 29%

Same assay, conditions: post-emergence, 336 h, IPOHE: ivy-leaf morning glory (Ipomoea hederacea), 140 g ai/ha, 14 days after application, read-out: Visual Growth Reduction (%) 14 Days After Application, IPOHE

SMILES	pest or weed control at 140 g/ha
COC(=O)c1nc(-c2ccccc2)c(F)cc1Cl [F219, Methyl 3-chloro-5-fluoro-6-phenylpicolinate]	45 to 59%
COC(=O)c1nc(-c2ccc(OC(F)F)cc2Cl)c(F)cc1Cl [F200, Methyl 3-chloro-6-(2-chloro-4-(difluoromethoxy)phenyl)-5-fluoropicolinate]	95 to 100%
COC(=O)c1nc(-c2ccc3c(c2)C(F)(F)OC(F)(F)O3)c(Cl)cc1Cl [F202, Methyl 3,5-dichloro-6-(2,2,4,4-tetrafluoro-4H-benzo[d][1,3]dioxin-6-yl)picolinate]	0 to 29%

Same assay, conditions: post-emergence, 336 h, KCHSC: kochia (Bassia scoparia), 140 g ai/ha, 14 days after application, read-out: Visual Growth Reduction (%) 14 Days After Application, KCHSC

SMILES	pest or weed control at 140 g/ha
COC(=O)c1nc(-c2ccccc2)c(F)cc1Cl [F219, Methyl 3-chloro-5-fluoro-6-phenylpicolinate]	0 to 29%
COC(=O)c1nc(-c2ccc(OC(F)F)cc2Cl)c(F)cc1Cl [F200, Methyl 3-chloro-6-(2-chloro-4-(difluoromethoxy)phenyl)-5-fluoropicolinate]	95 to 100%
COC(=O)c1nc(-c2ccc3c(c2)C(F)(F)OC(F)(F)O3)c(Cl)cc1Cl [F202, Methyl 3,5-dichloro-6-(2,2,4,4-tetrafluoro-4H-benzo[d][1,3]dioxin-6-yl)picolinate]	0 to 29%

Same assay, conditions: post-emergence, 336 h, ORYSA: rice (Oryza sativa), 140 g ai/ha, 14 days after application, read-out: Visual Growth Reduction (%) 14 Days After Application, ORYSA

SMILES	pest or weed control at 140 g/ha
COC(=O)c1nc(-c2ccccc2)c(F)cc1Cl [F219, Methyl 3-chloro-5-fluoro-6-phenylpicolinate]	0 to 29%
COC(=O)c1nc(-c2ccc(OC(F)F)cc2Cl)c(F)cc1Cl [F200, Methyl 3-chloro-6-(2-chloro-4-(difluoromethoxy)phenyl)-5-fluoropicolinate]	0 to 29%
COC(=O)c1nc(-c2ccc3c(c2)C(F)(F)OC(F)(F)O3)c(Cl)cc1Cl [F202, Methyl 3,5-dichloro-6-(2,2,4,4-tetrafluoro-4H-benzo[d][1,3]dioxin-6-yl)picolinate]	0 to 29%

Same assay, conditions: post-emergence, 336 h, SETFA: giant foxtail (Setaria faberi), 140 g ai/ha, 14 days after application, read-out: Visual Growth Reduction (%) 14 Days After Application, SETFA

SMILES	pest or weed control at 140 g/ha
COC(=O)c1nc(-c2ccccc2)c(F)cc1Cl [F219, Methyl 3-chloro-5-fluoro-6-phenylpicolinate]	0 to 29%
COC(=O)c1nc(-c2ccc(OC(F)F)cc2Cl)c(F)cc1Cl [F200, Methyl 3-chloro-6-(2-chloro-4-(difluoromethoxy)phenyl)-5-fluoropicolinate]	85 to 94%
COC(=O)c1nc(-c2ccc3c(c2)C(F)(F)OC(F)(F)O3)c(Cl)cc1Cl [F202, Methyl 3,5-dichloro-6-(2,2,4,4-tetrafluoro-4H-benzo[d][1,3]dioxin-6-yl)picolinate]	0 to 29%

Same assay, conditions: post-emergence, 336 h, SORVU: grain sorghum (Sorghum vulgare), 140 g ai/ha, 14 days after application, read-out: Visual Growth Reduction (%) 14 Days After Application, SORVU

SMILES	pest or weed control at 140 g/ha
COC(=O)c1nc(-c2ccccc2)c(F)cc1Cl [F219, Methyl 3-chloro-5-fluoro-6-phenylpicolinate]	60 to 74%
COC(=O)c1nc(-c2ccc(OC(F)F)cc2Cl)c(F)cc1Cl [F200, Methyl 3-chloro-6-(2-chloro-4-(difluoromethoxy)phenyl)-5-fluoropicolinate]	95 to 100%
COC(=O)c1nc(-c2ccc3c(c2)C(F)(F)OC(F)(F)O3)c(Cl)cc1Cl [F202, Methyl 3,5-dichloro-6-(2,2,4,4-tetrafluoro-4H-benzo[d][1,3]dioxin-6-yl)picolinate]	0 to 29%

Same assay, conditions: post-emergence, 336 h, STEME: common chickweed (Stellaria media), 140 g ai/ha, 14 days after application, read-out: Visual Growth Reduction (%) 14 Days After Application, STEME

SMILES	pest or weed control at 140 g/ha
COC(=O)c1nc(-c2ccccc2)c(F)cc1Cl [F219, Methyl 3-chloro-5-fluoro-6-phenylpicolinate]	0 to 29%
COC(=O)c1nc(-c2ccc(OC(F)F)cc2Cl)c(F)cc1Cl [F200, Methyl 3-chloro-6-(2-chloro-4-(difluoromethoxy)phenyl)-5-fluoropicolinate]	30 to 44%
COC(=O)c1nc(-c2ccc3c(c2)C(F)(F)OC(F)(F)O3)c(Cl)cc1Cl [F202, Methyl 3,5-dichloro-6-(2,2,4,4-tetrafluoro-4H-benzo[d][1,3]dioxin-6-yl)picolinate]	0 to 29%

Same assay, conditions: post-emergence, 336 h, TRZAS: wheat, spring (Triticum aestivum), 140 g ai/ha, 14 days after application, read-out: Visual Growth Reduction (%) 14 Days After Application, TRZAS

SMILES	pest or weed control at 140 g/ha
COC(=O)c1nc(-c2ccccc2)c(F)cc1Cl [F219, Methyl 3-chloro-5-fluoro-6-phenylpicolinate]	0 to 29%
COC(=O)c1nc(-c2ccc(OC(F)F)cc2Cl)c(F)cc1Cl [F200, Methyl 3-chloro-6-(2-chloro-4-(difluoromethoxy)phenyl)-5-fluoropicolinate]	75 to 84%
COC(=O)c1nc(-c2ccc3c(c2)C(F)(F)OC(F)(F)O3)c(Cl)cc1Cl [F202, Methyl 3,5-dichloro-6-(2,2,4,4-tetrafluoro-4H-benzo[d][1,3]dioxin-6-yl)picolinate]	0 to 29%

Same assay, conditions: post-emergence, 336 h, blackgrass (Alopecurus myosuroides), 14 Days After Application, 140 g ai/ha, read-out: Visual Growth Reduction (%) ALOMY

SMILES	pest or weed control at 140 g/ha
COC(=O)c1nc(-c2ccccc2)c(F)cc1Cl [F219, Methyl 3-chloro-5-fluoro-6-phenylpicolinate]	0 to 29%
COC(=O)c1nc(-c2ccc(OC(F)F)cc2Cl)c(F)cc1Cl [F200, Methyl 3-chloro-6-(2-chloro-4-(difluoromethoxy)phenyl)-5-fluoropicolinate]	45 to 59%
COC(=O)c1nc(-c2ccc3c(c2)C(F)(F)OC(F)(F)O3)c(Cl)cc1Cl [F202, Methyl 3,5-dichloro-6-(2,2,4,4-tetrafluoro-4H-benzo[d][1,3]dioxin-6-yl)picolinate]	0 to 29%

Same assay, conditions: post-emergence, 336 h, canada thistle (Cirsium arvense), 14 Days After Application, 140 g ai/ha, read-out: Visual Growth Reduction (%) CIRAR

SMILES	pest or weed control at 140 g/ha
COC(=O)c1nc(-c2ccccc2)c(F)cc1Cl [F219, Methyl 3-chloro-5-fluoro-6-phenylpicolinate]	0 to 29%
COC(=O)c1nc(-c2ccc(OC(F)F)cc2Cl)c(F)cc1Cl [F200, Methyl 3-chloro-6-(2-chloro-4-(difluoromethoxy)phenyl)-5-fluoropicolinate]	95 to 100%
COC(=O)c1nc(-c2ccc3c(c2)C(F)(F)OC(F)(F)O3)c(Cl)cc1Cl [F202, Methyl 3,5-dichloro-6-(2,2,4,4-tetrafluoro-4H-benzo[d][1,3]dioxin-6-yl)picolinate]	0 to 29%

Same assay, conditions: post-emergence, 336 h, crabgrass (Digitaria sanguinalis), 14 Days After Application, 140 g ai/ha, read-out: Visual Growth Reduction (%) DIGSA

SMILES	pest or weed control at 140 g/ha
COC(=O)c1nc(-c2ccccc2)c(F)cc1Cl [F219, Methyl 3-chloro-5-fluoro-6-phenylpicolinate]	30 to 44%
COC(=O)c1nc(-c2ccc(OC(F)F)cc2Cl)c(F)cc1Cl [F200, Methyl 3-chloro-6-(2-chloro-4-(difluoromethoxy)phenyl)-5-fluoropicolinate]	95 to 100%
COC(=O)c1nc(-c2ccc3c(c2)C(F)(F)OC(F)(F)O3)c(Cl)cc1Cl [F202, Methyl 3,5-dichloro-6-(2,2,4,4-tetrafluoro-4H-benzo[d][1,3]dioxin-6-yl)picolinate]	0 to 29%

Same assay, conditions: post-emergence, 336 h, lambsquarters (Chenopodium album), 14 Days After Application, 140 g ai/ha, read-out: Visual Growth Reduction (%) CHEAL

SMILES	pest or weed control at 140 g/ha
COC(=O)c1nc(-c2ccccc2)c(F)cc1Cl [F219, Methyl 3-chloro-5-fluoro-6-phenylpicolinate]	45 to 59%
COC(=O)c1nc(-c2ccc(OC(F)F)cc2Cl)c(F)cc1Cl [F200, Methyl 3-chloro-6-(2-chloro-4-(difluoromethoxy)phenyl)-5-fluoropicolinate]	95 to 100%
COC(=O)c1nc(-c2ccc3c(c2)C(F)(F)OC(F)(F)O3)c(Cl)cc1Cl [F202, Methyl 3,5-dichloro-6-(2,2,4,4-tetrafluoro-4H-benzo[d][1,3]dioxin-6-yl)picolinate]	0 to 29%

Same assay, conditions: post-emergence, 336 h, redroot pigweed (Amaranthus retroflexus), 14 Days After Application, 140 g ai/ha, read-out: Visual Growth Reduction (%) AMARE

SMILES	pest or weed control at 140 g/ha
COC(=O)c1nc(-c2ccccc2)c(F)cc1Cl [F219, Methyl 3-chloro-5-fluoro-6-phenylpicolinate]	0 to 29%
COC(=O)c1nc(-c2ccc(OC(F)F)cc2Cl)c(F)cc1Cl [F200, Methyl 3-chloro-6-(2-chloro-4-(difluoromethoxy)phenyl)-5-fluoropicolinate]	95 to 100%
COC(=O)c1nc(-c2ccc3c(c2)C(F)(F)OC(F)(F)O3)c(Cl)cc1Cl [F202, Methyl 3,5-dichloro-6-(2,2,4,4-tetrafluoro-4H-benzo[d][1,3]dioxin-6-yl)picolinate]	0 to 29%

Same assay, conditions: post-emergence, 336 h, wild oat (Avena fatua), 14 Days After Application, 140 g ai/ha, read-out: Visual Growth Reduction (%) AVEFA

SMILES	pest or weed control at 140 g/ha
COC(=O)c1nc(-c2ccccc2)c(F)cc1Cl [F219, Methyl 3-chloro-5-fluoro-6-phenylpicolinate]	0 to 29%
COC(=O)c1nc(-c2ccc(OC(F)F)cc2Cl)c(F)cc1Cl [F200, Methyl 3-chloro-6-(2-chloro-4-(difluoromethoxy)phenyl)-5-fluoropicolinate]	60 to 74%
COC(=O)c1nc(-c2ccc3c(c2)C(F)(F)OC(F)(F)O3)c(Cl)cc1Cl [F202, Methyl 3,5-dichloro-6-(2,2,4,4-tetrafluoro-4H-benzo[d][1,3]dioxin-6-yl)picolinate]	0 to 29%

Same assay, conditions: post-emergence, 336 h, yellow nutsedge (Cyperus esculentus), 14 Days After Application, 140 g ai/ha, read-out: Visual Growth Reduction (%) CYPES

SMILES	pest or weed control at 140 g/ha
COC(=O)c1nc(-c2ccccc2)c(F)cc1Cl [F219, Methyl 3-chloro-5-fluoro-6-phenylpicolinate]	0 to 29%
COC(=O)c1nc(-c2ccc(OC(F)F)cc2Cl)c(F)cc1Cl [F200, Methyl 3-chloro-6-(2-chloro-4-(difluoromethoxy)phenyl)-5-fluoropicolinate]	0 to 29%
COC(=O)c1nc(-c2ccc3c(c2)C(F)(F)OC(F)(F)O3)c(Cl)cc1Cl [F202, Methyl 3,5-dichloro-6-(2,2,4,4-tetrafluoro-4H-benzo[d][1,3]dioxin-6-yl)picolinate]	0 to 29%
